In patent US10458996B1, “Methods for determining clinical response to TNF-alpha and/or JAK inhibitors in subjects with inflammatory diseases” (Beth Israel Deaconess Medical Center, Inc., priority 2016, dated 2019):

Legend:
[1] = system: intestinal mucosal explants from patients with IBD; experiment: Ex vivo infliximab treatment of intestinal mucosal explant cultures, cytokines in supernatant by multiplex ELISA; assay type: cell-based, human; conditions: for GM-CSF inhibition by ex vivo infliximab treatment, % patients / GM-CSF inhibition by ex vivo infliximab treatment, N patients / IFNγ inhibition by ex vivo infliximab treatment, % patients / IFNγ inhibition by ex vivo infliximab treatment, N patients / IL-1β inhibition by ex vivo infliximab treatment, % patients / IL-1β inhibition by ex vivo infliximab treatment, N patients / IL-2 inhibition by ex vivo infliximab treatment, % patients / IL-2 inhibition by ex vivo infliximab treatment, N patients / IL-4 inhibition by ex vivo infliximab treatment, % patients / IL-4 inhibition by ex vivo infliximab treatment, N patients / IL-5 inhibition by ex vivo infliximab treatment, N patients / IL-6 inhibition by ex vivo infliximab treatment, % patients / IL-6 inhibition by ex vivo infliximab treatment, N patients / IL-7 inhibition by ex vivo infliximab treatment, % patients / IL-7 inhibition by ex vivo infliximab treatment, N patients / IL-8 inhibition by ex vivo infliximab treatment, % patients / IL-8 inhibition by ex vivo infliximab treatment, N patients / IL-10 inhibition by ex vivo infliximab treatment, % patients / IL-10 inhibition by ex vivo infliximab treatment, N patients / IL-12p40 inhibition by ex vivo infliximab treatment, N patients / IL-12p70 inhibition by ex vivo infliximab treatment, % patients / IL-12p70 inhibition by ex vivo infliximab treatment, N patients / IL-13 inhibition by ex vivo infliximab treatment, N patients / IL-17A inhibition by ex vivo infliximab treatment, N patients / MCP-1 inhibition by ex vivo infliximab treatment, % patients / MCP-1 inhibition by ex vivo infliximab treatment, N patients / IL-5 inhibition by ex vivo infliximab treatment, % patients / IL-12p40 inhibition by ex vivo infliximab treatment, % patients / IL-13 inhibition by ex vivo infliximab treatment, % patients / IL-17A inhibition by ex vivo infliximab treatment, % patients: infliximab 0.5 mg/ml; for number of cytokines down-regulated in the ex vivo assay: mean±SEM; for ex vivo response rate / ex vivo response rate (patients): responder = down-regulation of >2 cytokines
Protocol: During a hospital visit for an endoscopic procedure that was part of their standard care, patients were asked by the study coordinator whether they were willing to participate in this research study and sign the informed consent approved by the Institution's Committee on Clinical Investigations. From each patient, four extra punch biopsies were taken from the macroscopically most diseased areas of the inflamed intestinal mucosa, put on ice and transferred to the lab within 30 minutes of their harvesting.
(§1) From each patient, intestinal mucosal biopsies were minced into several pieces and distributed in 8 wells of a 96-well plate in 250 μl of Dulbecco's Modified Eagle Medium (DMEM) supplemented with 10% FBS and antibiotic-antimycotic (Life Technologies, CA). Half of the cultures were treated with infliximab (REMICADE®; 0.5 mg/ml; Janssen Biotech, Inc, NJ) and the plate was incubated at 37° C. in a humidified chamber of 95% O2/5% CO2 for 18 hours. Culture supernatants were collected, filtered and stored at −80° C. […] Signal detection and analysis was performed by MAGPIX® (Luminex Corporation, TX).
Within each patient, differences in cytokine release between control and infliximab-treated cultures (n=4 per group) were assessed by the Mann-Whitney test. Cytokine changes in patients with CD (N=29) or UC (N=16) were expressed as mean±SEM and evaluated by unpaired t-test followed by Bonferroni correction for multiple comparisons. In rate or percentage comparisons a chi-square test was applied. The non-parametric Mann-Whitney test was chosen for the rest of two-group analyses. The STATView 2.0 software (SAS Institute) was used for all tests with the exception of the Receiver Operating Characteristic (ROC) analysis for which STATA13 was used.
The impact of anti-TNFα (infliximab) treatment was investigated in vitro using mucosal biopsy cultures derived from the most inflamed areas of the terminal ileum or colon of a total of 45 patients with IBD, 64% with CD and 36% with UC. At the time the biopsies were taken, 32 patients (71%) were receiving medications for their IBD and 16 of them were under an anti-TNFα regimen. The assay read-out consisted of a panel of 15 cytokines, chemokines and inflammatory mediators, and its design was based on previously reported biomarkers for CD and UC, on biomarkers that correlated with response to anti-TNFα treatment and on plausible TNF-alpha related biological mechanisms (Tracey et al., Rismo et al., Iskandar et al., Transl Res 159:313-325, 2012; Umehara et al., Hepatogastroenterology 53:879-882, 2006). For each patient and each cytokine, data were generated for the two conditions (plus/minus infliximab) using the median of 4 independent cultures.

[2] = system: biopsy samples from patients with IBD; experiment: Cytokine profiles of patient biopsy cultures in response to treatment with various agents (Example 2); assay type: cell-based, human
Protocol: as §1
Patients with IBD were treated with 0.5 mg/ml infliximab (an anti-TNFα antibody; therapeutic agent), 100 μM tofacitinib (a Janus kinase (JAK) inhibitor) and an experimental drug (at 10 μM concentration) in accordance with the protocol described above. Following treatment, biopsy samples were obtained and analyzed for cytokine profiles using […].
Additional similar experiments were conducted for different patients using the same or different therapeutic agents, and the results are shown in FIG. 5D-5H.

patients with IBD = experiment: Clinical response to anti-TNFα therapy in study patients (review of hospital records); assay type: in vivo, human
Protocol: Upon study completion, a total of 28 patients ([…]) with IBD, 82% with CD, had received anti-TNFα therapy. Specifically, 18 patients were treated with infliximab, 8 patients with adalimumab, 1 patient with golimumab and 1 patient with cetrolizumab pegol. The study participants' hospital electronic records were reviewed by physicians blinded to the results of the ex vivo testing and clinical responses to treatment with anti-TNFα were assessed.
Patients belonging to cohort 1 (N=6) came into the study as anti-TFNalpha naïve and had the shorter follow-up.
(a) need for hospitalization or surgical intervention for IBD-related problems (N=4);
(b) dose or frequency escalation of anti-TNFα treatment or switching to another anti-TNFα regimen (N=4);
(c) adding corticosteroids or an immunomodulator to the therapeutic scheme (N=3);
(d) treatment with emerging IBD drugs such as vedolizumab, tofacitinib, or ustekinumab (N=6).

patients with CD and UC = conditions: cited from earlier work
patients with UC = conditions: cited from earlier work
[3] = system: patients with moderate-to-severe CD; conditions: week 24 of intervention; cited from earlier work
[4] = cited from earlier work
[5] = Clinical Response No (n = 17), 18 hours
[6] = Clinical Response No (n = 17), some values below detection limit or missing, 18 hours
[7] = Clinical Response Yes (n = 11), 18 hours
[8] = Clinical Response Yes (n = 11), some values below detection limit or missing, 18 hours
[9] = Mann-Whitney within each patient, 0.5 mg/ml, 18 hours
[10] = cohort 1, anti-TNFα naïve IBD patients
[11] = cohort 2, anti-TNFα exposed patients

infliximab
GM-CSF inhibition by ex vivo infliximab treatment, % patients [1, 5]: 5.9%
GM-CSF inhibition by ex vivo infliximab treatment, N patients [1, 5]: 1
IFNγ inhibition by ex vivo infliximab treatment, % patients [1, 5]: 23.5%
IFNγ inhibition by ex vivo infliximab treatment, N patients [1, 5]: 4
IL-1β inhibition by ex vivo infliximab treatment, % patients [1, 5]: 11.8%
IL-1β inhibition by ex vivo infliximab treatment, N patients [1, 5]: 2
IL-2 inhibition by ex vivo infliximab treatment, % patients [1, 5]: 11.8%
IL-2 inhibition by ex vivo infliximab treatment, N patients [1, 5]: 2
IL-4 inhibition by ex vivo infliximab treatment, % patients [1, 5]: 5.9%
IL-4 inhibition by ex vivo infliximab treatment, N patients [1, 5]: 1
IL-5 inhibition by ex vivo infliximab treatment, N patients [1, 5]: 1
IL-6 inhibition by ex vivo infliximab treatment, % patients [1, 5]: 5.9%
IL-6 inhibition by ex vivo infliximab treatment, N patients [1, 5]: 1
IL-7 inhibition by ex vivo infliximab treatment, % patients [1, 5]: 0.0%
IL-7 inhibition by ex vivo infliximab treatment, N patients [1, 5]: 0
IL-8 inhibition by ex vivo infliximab treatment, % patients [1, 5]: 5.9%
IL-8 inhibition by ex vivo infliximab treatment, N patients [1, 5]: 1
IL-10 inhibition by ex vivo infliximab treatment, % patients [1, 5]: 11.8%
IL-10 inhibition by ex vivo infliximab treatment, N patients [1, 5]: 2
IL-12p40 inhibition by ex vivo infliximab treatment, N patients [1, 5]: 3
IL-12p70 inhibition by ex vivo infliximab treatment, % patients [1, 5]: 17.6%
IL-12p70 inhibition by ex vivo infliximab treatment, N patients [1, 5]: 3
IL-13 inhibition by ex vivo infliximab treatment, N patients [1, 5]: 0
IL-17A inhibition by ex vivo infliximab treatment, N patients [1, 5]: 0
MCP-1 inhibition by ex vivo infliximab treatment, % patients [1, 5]: 5.9%
MCP-1 inhibition by ex vivo infliximab treatment, N patients [1, 5]: 1
IL-5 inhibition by ex vivo infliximab treatment, % patients [1, 6]: 7.7%
IL-12p40 inhibition by ex vivo infliximab treatment, % patients [1, 6]: 20.0^∧ %
IL-13 inhibition by ex vivo infliximab treatment, % patients [1, 6]: 0.0^∧ %
IL-17A inhibition by ex vivo infliximab treatment, % patients [1, 6]: 0.0^∧ %
GM-CSF inhibition by ex vivo infliximab treatment, % patients [1, 7]: 9.1%
GM-CSF inhibition by ex vivo infliximab treatment, N patients [1, 7]: 1
IFNγ inhibition by ex vivo infliximab treatment, % patients [1, 7]: 45.5%
IFNγ inhibition by ex vivo infliximab treatment, N patients [1, 7]: 5
IL-1β inhibition by ex vivo infliximab treatment, % patients [1, 7]: 45.5%
IL-1β inhibition by ex vivo infliximab treatment, N patients [1, 7]: 5
IL-2 inhibition by ex vivo infliximab treatment, % patients [1, 7]: 45.5%
IL-2 inhibition by ex vivo infliximab treatment, N patients [1, 7]: 5
IL-4 inhibition by ex vivo infliximab treatment, % patients [1, 7]: 63.6%
IL-4 inhibition by ex vivo infliximab treatment, N patients [1, 7]: 7
IL-5 inhibition by ex vivo infliximab treatment, % patients [1, 7]: 81.8%
IL-5 inhibition by ex vivo infliximab treatment, N patients [1, 7]: 9
IL-6 inhibition by ex vivo infliximab treatment, % patients [1, 7]: 0.0%
IL-6 inhibition by ex vivo infliximab treatment, N patients [1, 7]: 0
IL-7 inhibition by ex vivo infliximab treatment, N patients [1, 7]: 8
IL-8 inhibition by ex vivo infliximab treatment, % patients [1, 7]: 0.0%
IL-8 inhibition by ex vivo infliximab treatment, N patients [1, 7]: 0
IL-10 inhibition by ex vivo infliximab treatment, % patients [1, 7]: 18.2%
IL-10 inhibition by ex vivo infliximab treatment, N patients [1, 7]: 2
IL-12p40 inhibition by ex vivo infliximab treatment, % patients [1, 7]: 45.5%
IL-12p40 inhibition by ex vivo infliximab treatment, N patients [1, 7]: 5
IL-12p70 inhibition by ex vivo infliximab treatment, % patients [1, 7]: 27.3%
IL-12p70 inhibition by ex vivo infliximab treatment, N patients [1, 7]: 3
IL-13 inhibition by ex vivo infliximab treatment, N patients [1, 7]: 7
IL-17A inhibition by ex vivo infliximab treatment, % patients [1, 7]: 72.7%
IL-17A inhibition by ex vivo infliximab treatment, N patients [1, 7]: 8
MCP-1 inhibition by ex vivo infliximab treatment, % patients [1, 7]: 9.1%
MCP-1 inhibition by ex vivo infliximab treatment, N patients [1, 7]: 1
IL-7 inhibition by ex vivo infliximab treatment, % patients [1, 8]: 88.8%
IL-13 inhibition by ex vivo infliximab treatment, % patients [1, 8]: 70.0%
number of cytokines per patient, besides TNFα, significantly inhibited ex vivo, maximum [1, 9]: 12
number of cytokines per patient, besides TNFα, significantly inhibited ex vivo, median [1, 9]: 2
number of cytokines per patient, besides TNFα, significantly inhibited ex vivo, minimum [1, 9]: 0
Changes in TNFα levels in culture supernatant ([1]; all patients tested, p<0.0001, 0.5 mg/ml, 18 hours): robustly down-regulated
number of cytokines down-regulated in the ex vivo assay ([1]; clinical non-responders to anti-TNFα therapy): 1.29±0.63
number of cytokines down-regulated in the ex vivo assay ([1]; clinical responders to anti-TNFα therapy): 6.0±1.02
ex vivo inhibition of IL-17A, IL-7, IL-5 and IL-4/IL-13 ([1]; clinical responders versus non-responders to anti-TNFα therapy): almost exclusively observed in the clinical responders
ex vivo response rate [1, 10]: 45.5%
ex vivo response rate (patients) [1, 10]: 10/23
ex vivo response rate [1, 11]: 43.5%
ex vivo response rate (patients) [1, 11]: 10/22
magnitude of infliximab-mediated inhibition of the rest of cytokines (other than TNFα) ([1]; group means, CD and UC patients, 0.5 mg/ml, 18 hours): < 30%
cytokines whose inhibition reached statistical significance ([1]; patients with CD (N=29), 0.5 mg/ml, 18 hours): IL-2 (p<0.001), IL-12p40 (p<0.05) and IL-5 (p<0.05)
cytokines whose inhibition reached statistical significance ([1]; patients with UC (N=16), 0.5 mg/ml, 18 hours): IL-1β (p<0.05) and IL-7 (p<0.05)
biomarkers with reductions in level achieving statistical significance ([2]; 0.5 mg/ml, cytokine responder group compared to non-responder group (FIG. 5A)): IL-12p40, IL-12p70, IL-13, IL-17A, IL-2, IL-4, IL-5, and IL-7
TNFα levels ([2]; 0.5 mg/ml, responder and non-responder groups (FIG. 5A)): significantly attenuated in both groups
ex vivo response of patient ([2]; patient ID 13-284 (FIG. 5D)): ex vivo responder
changes in cytokine profile ([2]; patient ID 13-284 (FIG. 5D), in addition to the direct target TNFα): three cytokine expression down-regulation
clinical response rate (patients with IBD; patients positive in the ex vivo treatment (ex vivo responders, 10/12)): 83%
clinical response rate (patients with IBD; patients with negative ex vivo results (ex vivo non-responders, 1/16)): 6%
sustained response rates beyond week 30 (patients with CD and UC; IBD patients): 30-40%
Primary response rates to induction therapy (patients with CD and UC; randomized clinical trials of CD and UC): up to 60%
clinical response rates during induction (patients with UC; 10 mg/kg, week 8): 61.5%
clinical response rates, maintenance therapy (patients with UC; week 53): 19.8%
Mucosal healing rates [3]: 30.1%
patients with undetectable infliximab serum levels ([4]; 483 patients with CD during maintenance therapy): 23%
risk to loose response in the presence of ADA ([4]; metanalysis, 95% CI:2-4.9): 3.2 fold
patients positive for anti-drug antibodies (ADA) ([4]; of the CD patients with undetectable infliximab serum levels): 72%
patients developing anti-drug antibodies (ADA) ([4]; secondary loss of response): 10%
